{
  "source": "paper PMC11246995",
  "about": "(Frontiers in Molecular Biosciences, 2024)",
  "tested_on": "kidney tissues",
  "assay": "MALDI MSI ion intensity of renal endogenous metabolites, rotenone-treated vs untreated kidney",
  "format": "in vivo, rat",
  "set-up": "key to Ion Intensity in Rotenone-treated Kidney Tissues: N-Acetylhistidine / Ion Intensity in Rotenone-treated Kidney Tissues: O-Phosphotyrosine / Ion Intensity in Rotenone-treated Kidney Tissues: Adenosine diphosphate / Ion Intensity in Rotenone-treated Kidney Tissues: LysoPC(P-16:0) / Ion Intensity in Rotenone-treated Kidney Tissues: LysoPC(16:1) / Ion Intensity in Rotenone-treated Kidney Tissues: LysoPC(16:0) / Ion Intensity in Rotenone-treated Kidney Tissues: LysoPC(17:0) / Ion Intensity in Rotenone-treated Kidney Tissues: LysoPC(18:2) / Ion Intensity in Rotenone-treated Kidney Tissues: L-carnitine / Ion Intensity in Rotenone-treated Kidney Tissues: LysoPC(18:1) / Ion Intensity in Rotenone-treated Kidney Tissues: LysoPC(20:4) / Ion Intensity in Rotenone-treated Kidney Tissues: Phosphorylcholine / Ion Intensity in Rotenone-treated Kidney Tissues: Adenosine monophosphate / Ion Intensity in Rotenone-treated Kidney Tissues: Creatinine / Ion Intensity in Rotenone-treated Kidney Tissues: Histidine / Ion Intensity in Rotenone-treated Kidney Tissues: Phenylalanine / Ion Intensity in Rotenone-treated Kidney Tissues: 3-methylhistidine / Ion Intensity in Rotenone-treated Kidney Tissues: Arginine: ↑ indicates higher ion intensity level than that of the control group; ↓ indicates lower ion intensity level than that of the control group; *p < 0.05; **p < 0.01; ***p < 0.001",
  "details": "vs control; for Ion intensity in rotenone-treated kidney tissues: Glycero-3-phosphocholine / Ion intensity in rotenone-treated kidney tissues: Inosine / Ion intensity in rotenone-treated kidney tissues: LysoPC(18:0): [M+K]+",
  "experimental": "Rats were sacrificed 24 h after drug administration, and the kidney and liver organs were immediately removed, flash-frozen with liquid nitrogen, and stored at −80°C in a freezer for long-term storage. The administration and harvesting of organs were conducted by the Pharmalytics Corporation, accredited by the Food and Drug Administration (FDA, Philippines) for bioavailability and bioequivalence research. The animal study was reviewed and approved by the Institutional Animal Care and Use Committee (IACUC) Esteleydes Animal Laboratory and Research Facility and by the Bureau of Animal Industry—Animal Health and Welfare Division in the Philippines.\nTo identify possible metabolic alterations, the m/z values of endogenous compounds found in kidney were extracted from the human metabolome database (http://www.hmdb.ca). The spatial mapping of endogenous compounds was visualized by MALDI HDMS imaging. The detection of metabolite biomarkers was supported by their spatial distribution, normalized ion intensity, m/z accuracy, and similar drift time bins in thin tissues sectioned from the seven identified layers of drug-treated and control rat kidney.\nMALDI HDMS raw data was imported into High-Definition Imaging (HDI) software v1.5 (Waters Corporation, Manchester, United Kingdom). Data processing was performed by detecting 10,000 intense peaks between a mass range of m/z 50–750, a drift time maximum of 200 bins, and a lock mass-based correction at m/z 464.6064. Following data processing, peak picking was carried out and data was normalized based on the total ion current (TIC). The spatial distribution of rotenone and kidney endogenous molecules from the m/z peak list was visualized using the HDI software. […] The tentative identification and assignment of kidney metabolites were based on the metabolites in the human metabolome database (http://www.hmdb.ca). The m/z values and structure of these renal endogenous molecules were verified using PubChem (https://pubchem.ncbi.nlm.nih.gov), ChemDraw Professionals, and by the related literature ([Jung et al., 2016]; [Nizioł et al., 2020]; [Zhu Y. et al., 2022]).\nA multivariate analysis was performed by importing the merged CSV file of processed MALDI image data into EZinfo v3.0 (Waters Corporation, Manchester, United Kingdom). Principal component analysis (PCA) was used to find patterns or trend in the MALDI dataset of the control and drug-treated groups. A peak list of biomolecules was manually created for PCA analysis from the laser-ablated kidney tissue sections. Pareto variance was used to scale the x-variable and to eliminate any bias in this unsupervised algorithm. Similar and far away observations between the dataset were illustrated based on the t[1] and t[2] indices. Meanwhile, the statistical differences between the mass ion intensity of endogenous compounds in two treatment groups were analyzed using the Student’s t-test of GraphPad Prism version 9.4.0 (GraphPad Software Inc., San Diego, CA, United States). The significance threshold was set at p < 0.05 (*), p < 0.01 (**), and p < 0.001 (***).",
  "key": {"[1]": {"details": "rat, single oral 2 mg/kg, 24 h, [M+H]+"}},
  "data": [
    {"smiles": "C=C(C)[C@H]1Cc2c(ccc3c2O[C@@H]2COc4cc(OC)c(OC)cc4[C@@H]2C3=O)O1", "note": "[rotenone, Rotenone]", "values": [
      {"measurement": "Ion Intensity in Rotenone-treated Kidney Tissues: 3-methylhistidine", "setting": "Table S1, [M+H]+", "value": "↓"},
      {"measurement": "Ion Intensity in Rotenone-treated Kidney Tissues: Adenosine diphosphate", "setting": "Table S1, [M+H]+", "value": "↑"},
      {"measurement": "Ion Intensity in Rotenone-treated Kidney Tissues: Adenosine monophosphate", "setting": "Table S1, [M+H]+", "value": "↓"},
      {"measurement": "Ion Intensity in Rotenone-treated Kidney Tissues: Arginine", "setting": "Table S1, [M+H]+", "value": "↓"},
      {"measurement": "Ion Intensity in Rotenone-treated Kidney Tissues: Creatinine", "setting": "Table S1, [M+H]+", "value": "↓"},
      {"measurement": "Ion Intensity in Rotenone-treated Kidney Tissues: Histidine", "setting": "Table S1, [M+H]+", "value": "↑"},
      {"measurement": "Ion Intensity in Rotenone-treated Kidney Tissues: L-carnitine", "setting": "Table S1, [M+H]+", "value": "↑"},
      {"measurement": "Ion Intensity in Rotenone-treated Kidney Tissues: LysoPC(16:0)", "setting": "Table S1, [M+H]+", "value": "↓"},
      {"measurement": "Ion Intensity in Rotenone-treated Kidney Tissues: LysoPC(16:1)", "setting": "Table S1, [M+H]+", "value": "↑"},
      {"measurement": "Ion Intensity in Rotenone-treated Kidney Tissues: LysoPC(17:0)", "setting": "Table S1, [M+H]+", "value": "↓"},
      {"measurement": "Ion Intensity in Rotenone-treated Kidney Tissues: LysoPC(18:1)", "setting": "Table S1, [M+H]+", "value": "↑"},
      {"measurement": "Ion Intensity in Rotenone-treated Kidney Tissues: LysoPC(18:2)", "setting": "Table S1, [M+H]+", "value": "↑"},
      {"measurement": "Ion Intensity in Rotenone-treated Kidney Tissues: LysoPC(20:4)", "setting": "Table S1, [M+H]+", "value": "↑"},
      {"measurement": "Ion Intensity in Rotenone-treated Kidney Tissues: LysoPC(P-16:0)", "setting": "Table S1, [M+H]+", "value": "↓"},
      {"measurement": "Ion Intensity in Rotenone-treated Kidney Tissues: N-Acetylhistidine", "setting": "Table S1, [M+H]+", "value": "↓"},
      {"measurement": "Ion Intensity in Rotenone-treated Kidney Tissues: O-Phosphotyrosine", "setting": "Table S1, [M+H]+", "value": "↓"},
      {"measurement": "Ion Intensity in Rotenone-treated Kidney Tissues: Phenylalanine", "setting": "Table S1, [M+H]+", "value": "↓"},
      {"measurement": "Ion intensity in rotenone-treated kidney tissues: Choline", "setting": "Table S1, [M+H]+", "value": "↓***"},
      {"measurement": "Ion intensity in rotenone-treated kidney tissues: Sphingomyelin (D18:1/16:0)", "setting": "Table S1, [M+H]+", "value": "↑*"},
      {"measurement": "Ion intensity in rotenone-treated kidney tissues: Glycero-3-phosphocholine", "setting": "Table S1", "value": "↓*"},
      {"measurement": "Ion intensity in rotenone-treated kidney tissues: Inosine", "setting": "Table S1", "value": "↓**"},
      {"measurement": "Ion intensity in rotenone-treated kidney tissues: LysoPC(18:0)", "setting": "Table S1", "value": "↓**"},
      {"measurement": "Ion Intensity in Rotenone-treated Kidney Tissues: Phosphorylcholine", "setting": "Table S1, [M]+", "value": "↑"},
      {"measurement": "Ion intensity in rotenone-treated kidney tissues: Choline", "setting": "[1]", "value": "↓***"},
      {"measurement": "Ion intensity in rotenone-treated kidney tissues: Sphingomyelin (D18:1/16:0)", "setting": "[1]", "value": "↑*"},
      {"measurement": "Ion intensity in rotenone-treated kidney tissues: Glycero-3-phosphocholine", "setting": "rat, single oral 2 mg/kg, 24 h", "value": "↓*"},
      {"measurement": "Ion intensity in rotenone-treated kidney tissues: Inosine", "setting": "rat, single oral 2 mg/kg, 24 h", "value": "↓**"},
      {"measurement": "Ion intensity in rotenone-treated kidney tissues: LysoPC(18:0)", "setting": "rat, single oral 2 mg/kg, 24 h", "value": "↓**"},
      {"measurement": "ion intensity of choline in kidney tissues treated with rotenone", "setting": "p < 0.001", "value": "significant decrease"},
      {"measurement": "inosine level in treated kidney", "setting": "p < 0.01", "value": "significant reduction"},
      {"measurement": "ion intensity levels of LysoPC(18:0) in rotenone-treated kidney tissues", "setting": "p < 0.01", "value": "decreased significantly"},
      {"measurement": "GPC level in drug-treated kidney tissues", "setting": "p < 0.05", "value": "decreased significantly"},
      {"measurement": "sphingomyelin (D18:1/16:0) level in treated kidney", "setting": "p < 0.05", "value": "significant increase"}
    ]}
  ]
}
